# Assay: Biocide miscibility screening
# Type: physicochemical
# Conditions: 50:50 mixture, 24 hrs
# Source text: Each component was mixed as 50:50 (based on active solids) mixture. The content was allowed to sit for 24 hrs before photographing.
structure (smiles),measurement,value
"N#Cc1c(-c2ccc(Cl)cc2)[nH]c(C(F)(F)F)c1Br [Econea, Tralopyril 4-bromo-2-(4-chlorophenyl)-5-(trifluoromethyl)-1H-pyrrole-3-carbonitrile]",Miscibility of Econea and SeaNine 211N with each other,not miscible
same,Miscibility with AM-14,only partially miscible
same,Miscibility with AM-24,good miscibility
same,Miscibility with PDMS (silanol),only partially miscible
"CCCCCCCCn1sc(Cl)c(Cl)c1=O [SeaNine 211N, 4,5-Dichloro-2-n-octyl-4-isothiazolin-4-one]",Miscibility of Econea and SeaNine 211N with each other,not miscible
same,Miscibility with AM-14,miscible
same,Miscibility with AM-24,miscible
same,Miscibility with PDMS (silanol),did not show complete miscibility

# — patent US12018172B2, “Sidechain functionalized organosiloxanes, coating compositions containing sidechain functionalized organosiloxanes, coated articles, and methods of making and methods of use thereof” (Adaptive Surface Technologies, Inc., priority 2018, dated 2024)
